In patent US20180243421A1, “IMMUNOSTIMULATING AGENT” (AJINOMOTO CO., INC., priority 2015, published 2018):

Legend:
[1] = system: anti-OVA-specific IgG1 subclass antibody; assay: Adjuvant activity: anti-OVA-specific IgG1 subclass antibody in serum after secondary immunization (Examples 12, 19, 20, 21); assay type: in vivo, BALB/c mice; settings: Example 21; s.c.; SZ62 0.256 μmol in 5% αCD saline, CpG 5 μg, MPL 5 μg, Addavax 1:1, Alum; two weeks from secondary immunization
[2] = system: anti-OVA-specific IgG2a subclass antibody; assay: Adjuvant activity: anti-OVA-specific IgG2a subclass antibody in serum after secondary immunization; assay type: in vivo, BALB/c mice; settings: Example 21; s.c.; SZ62 0.256 μmol in 5% αCD saline, CpG 5 μg, MPL 5 μg, Addavax 1:1, Alum; two weeks from secondary immunization
Protocol: (§1) Two weeks from the secondary immunization, the whole blood was extracted under anesthesia, and the obtained serum sample was measured for anti-OVA-specific IgG1 subclass antibody.
Measurement Method of anti-OVA-specific IgG2a Subclass Antibody
(§2) To a 96 well plate was added 5 μg/ml OVA at 100 μl/well, and the mixture was incubated at 4° C. overnight. After incubation, the mixture was washed three times with 200 μl of PBS-T (PBS+0.05%(v/v) Tween 20) per well, and blocked with 100 μl of 5% FCS/PBS solution per well at room temperature for 1 to 2 hr. Thereafter, the mixture was washed three times with PBS-T (200 μl/well), a diluted serum sample (100 μl/well) or the same amount of 5% FCS/PBS solution as a control was added, and the mixture was incubated at 37° C. for 1 hr. Thereafter, the mixture was washed five times with PBS-T (200 μl/well), a diluted biotinylated anti-mouse IgG2a antibody (100 μl/well) was added, and the mixture was incubated at 37° C. for 45 min. Thereafter, the mixture was washed five times with PBS-T (200 μl/well), a diluted anti-biotin-HRP antibody was added (100 μl/well), and the mixture was incubated at 37° C. for another 30 min. Thereafter, the mixture was washed five times with PBS-T (200 μl/well), TMB substrate solution was added (100 μl/well), and the mixture was incubated at room temperature for 10-15 min. Thereafter, a reaction quenching liquid (2N sulfuric acid solution) was added (50 μl/well) to discontinue a color developing reaction, and the absorbance (OD Value=450 nm) was measured by a microplate reader.
Measurement Method of Concentration of anti-OVA-specific IgG1 Subclass Antibody and anti-OVA-specific IgG2a Subclass Antibody
To a 96 well plate was added 5 μg/ml OVA at 100 μl/well, and the mixture was incubated at 4° C. overnight. After incubation, the mixture was washed three times with 200 μl of PBS-T (PBS+0.05% (v/v) Tween 20) per well, and blocked with 100 μl of 5% FCS/PBS solution per well at room temperature for 1 to for 2 hr. […] When an anti-OVA-specific IgG2a subclass antibody was measured, the standard of an anti-OVA-specific IgG2a subclass antibody was added at 50 ng/ml, 25 ng/ml, 12,5 ng/ml, 6.25 ng/ml, 3.125 ng/ml, 1.56 ng/ml, 0.781 ng/ml, 0.391 ng/ml, 0.195 ng/ml, 0.098 ng/ml, 0.049 ng/ml, 0 ng/ml, per 1 well. […] Thereafter, a reaction quenching liquid (2N sulfuric acid solution) was added (50 μl/well) to discontinue a color developing reaction, and the absorbance (OD Value=450 nm) was measured by a microplate reader. A standard curve was drawn from the measured OD values, and the concentration was calculated.

[3] = system: anti-OVA-specific IgE antibody; settings: mouse, in vivo
Protocol: The serum sample obtained in Example 1 was measured for an anti-OVA-specific IgE antibody. The measurement method of the anti-OVA-specific IgE antibody in Example 3 and Examples 6, 9 is as follows.
Measurement Method of anti-OVA-specific IgE Antibody
DS mouse IgE ELISA (OVA) kit manufactured by DS Pharma Biomedical Co., Ltd. was used. The protocol is briefly shown below.
The serum sample and a standard reagent for drawing an analytical curve are diluted with a buffer and, after stirring, left standing at room temperature for 10 min. The sample and the standard solution are added to a plate bound with an IgE capture antibody in advance and, after stirring, the mixture is left standing at room temperature for 60 min. The mixture is washed three times with wash, HRP-labeled OVA is added, and the mixture is left standing at room temperature for 30 min. The mixture is washed three times with wash, a substrate solution is added, and the mixture is left standing in dark at room temperature for 30 min. A reaction quenching liquid is added, the mixture is stirred, and the absorbance (OD Value=450 nm) is immediately measured.
This test was performed in the same manner as in Example 3 except that N^2-hexadecanoyl-L-arginine (SZ61), N-hexadecanoylagmatine (SZ62), N^2-hexadecanoyl-L-arginine methyl ester hydrochloride (SZ63), N^2-octadecanoyl-L-glutamine tert-butyl ester (SZ64), and N^2-octadecanoyl-L-glutamine (SZ65) were used.
This test was performed in the same manner as in Example 6 except that N-hexadecanoylagmatine (SZ62), N^2-octadecanoyl-L-glutamine tert-butyl ester (SZ64), N-docosanoyl-L-leucine methyl ester (SZ70), and N-docosanoyl-L-phenylalanine methyl ester (SZ71) were used and a positive control adjuvant Addavax™ (InvivoGen) administration group was formed.
(§3) The allergy inducing activity test was performed in the same manner as in Example 3 except that Addavax™, N-(2-octadecyleicosanoyl)-L-leucine methyl ester (SZ86), N-hexadecanoyl-L-leucinamide (SZ90), N^2-hexadecanoyl-N^1,N^1-diethyl-L-leucinamide (SZ92), N^2-hexadecanoyl-L-arginine hexyl ester hydrochloride (SZ99) and N^2-docosanoyl-N^1,N^1-diethyl-L-glutamic acid 1-amide (SZ106) were used.
as §3, with “N-hexadecanoyl-L-leucine” for “N^2-hexadecanoyl-L-arginine”, “(SZ97),” for “hydrochloride (SZ99) and”, “(SZ106) and N-docosanoylagmatine hydrochloride (SZ108)” for “(SZ106)”
8-Week-old female BALB/c mice were divided into groups (N=6), and each group was primarily immunized by dorsal-subcutaneous administration of (1) ovalbumin (OVA) (5 μg) dissolved in saline as an antigen (OVA single administration group), (2) OVA (10 μg) and aluminum hydroxide salt dissolved in saline (Alum administration group), (3) OVA 10 μg and Addavax™ (mixed with saline at 1:1) dissolved in saline (Addavax™ administration group), (4) OVA 10 μg and CpG 5 μg dissolved in saline (CpG administration group), (5) OVA 10 μg and MPL 5 μg dissolved in saline (MPL administration group), (6) OVA (5 μg) and SZ62 (0.256 μmol) dissolved or dispersed in 5% αCD-added saline (SZ62 administration group), (7) OVA (5 μg), SZ62 (0.256 μmol) and CpG 5 μg dissolved or dispersed in 5% αCD-added saline (SZ62+CpG administration group), (8) OVA 10 μg, Addavax™ (mixed with saline at 1:1) and CpG 5 μg dissolved in saline (Addavax™+CpG administration group), (9) OVA (5 μg), SZ62 (0.256 μmol) and MPL 5 μg dissolved or dispersed in 5% αCD-added saline (SZ62+MPL administration group), (10) OVA (10 μg), aluminum hydroxide salt (Alum) and MPL 5 μg dissolved in saline (Alum+MPL administration group), each per mouse. One week later, the secondary immunization was carried out by dorsal-subcutaneous administration of solutions or dispersions similar to those of the above-mentioned (1) to (10) again.

[4] = system: IFN-γ; assay: Th1 response: IFN-γ production from lymph node cells of immunized mice restimulated with OVA; assay type: in vivo, BALB/c mice; settings: Example 10; s.c. OVA 10 μg + 0.256 μmol in 5% αCD saline (Addavax 1:1); groin lymph node ten days later; 0.1-100 μg OVA, 40 hr, ELISA
Protocol: (§4) Ten days later, groin lymph node was collected from all mice of the above-mentioned (1) to (4), lymph node cells were isolated and cultured in 10% FBS-containing RPMI1640 medium. Thereto was added 0.1 μg, 1 μg, 10 μg, 100 μg of OVA, respectively, 40 hr later, cell supernatant was recovered, and IFN-γ and IL-4 in the supernatant were measured by ELISA.

[5] = system: IL-4; assay: Th2 response: IL-4 production from lymph node cells of immunized mice restimulated with OVA; assay type: in vivo, BALB/c mice; settings: Example 10; s.c. OVA 10 μg + 0.256 μmol in 5% αCD saline (Addavax 1:1); groin lymph node ten days later; 0.1-100 μg OVA, 40 hr, ELISA
Protocol: as §4

[6] = system: anti-OVA-specific IgG1 subclass antibody; assay: Adjuvant activity: anti-OVA-specific IgG1 subclass antibody in serum after secondary immunization (Examples 1, 5, 7, 8; ELISA absorbance); assay type: in vivo, BALB/c mice; settings: Example 7
Protocol: as §1
A method for measurement of the anti-OVA-specific IgG1 subclass antibody in Example 1, and the following Examples 5, 7 and 8 is as follows.
Measurement Method of anti-OVA-specific IgG1 Subclass Antibody
as §2, with “IgG1” for “IgG2a”, “10 to 15” for “10-15”

Compound | anti-OVA-specific IgG1 subclass antibody production as compared to the OVA single administration group [1] | anti-OVA-specific IgG2a subclass antibody production as compared to the OVA single administration group [2] | allergy inducing activity as compared to aluminum hydroxide gel adjuvant and Addavax [3] | IFN-γ production from lymph node cells [4] | IL-4 production from lymph node cells [5] | adjuvant activity (IgG1) compared with Alum [6] | anti-OVA-specific IgG1 subclass antibody production as compared to the OVA single administration group ([6]; same manner as Example 1, plus Addavax group)
monophosphoryl lipid [MPL, reference compound] | significantly increased | tended to increase |  |  |  |  | 
CCCCCCCCCCCCCCCCCCCCCC(=O)N[C@@H](CC(C)C)C(=O)OC [SZ70, N-docosanoyl-L-leucine methyl ester] |  |  | lower allergy inducing activity | increased in an OVA volume dependent manner | did not show an increase | equivalent to or not less than that of Alum | significantly increased
